Reference: PubChem BioAssay (NCI)
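The compound was tested at five concentrations on cells cultured in 96-well plates, with a 48-hour exposure period. Here, GI50 denotes the concentration required for 50% inhibition of growth. TGI denotes the concentration required for complete inhibition of growth.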

Experiments:
Experiment in all cases: NCI-60 cell line screen, 48 h
CCRF-CEM leukemia = system: CCRF-CEM leukemia
HL-60(TB) leukemia = system: HL-60(TB) leukemia
NCI-H460 lung = system: NCI-H460 lung
OVCAR-3 ovarian = system: OVCAR-3 ovarian
SF-539 CNS = system: SF-539 CNS
SK-MEL-2 melanoma = system: SK-MEL-2 melanoma
SK-MEL-5 melanoma = system: SK-MEL-5 melanoma
SN12C renal = system: SN12C renal
U251 CNS = system: U251 CNS
UO-31 renal = system: UO-31 renal

Q: Which TGI (CCRF-CEM leukemia) does the source give for `C/C(=N/NC(N)=S)C(CN1CCOCC1)C(C1=C(O)c2ccccc2OC1)c1ccccc1` (stereo not given) here?
A: Its TGI is > 100 µM.

Q: What about the TGI (HL-60(TB) leukemia) of the same compound?
A: Its TGI is 50 µM.

Q: What about the TGI (NCI-H460 lung) of the same compound?
A: Its TGI is > 100 µM.

Q: And the TGI (OVCAR-3 ovarian)?
A: Its TGI is > 100 µM.

Q: And the TGI (SF-539 CNS)?
A: The TGI was > 100 µM.

Q: And the TGI (SK-MEL-2 melanoma)?
A: The TGI was > 100 µM.

Q: What about the TGI (SK-MEL-5 melanoma) of the same compound?
A: Its TGI is > 100 µM.

Q: And the TGI (SN12C renal)?
A: Its TGI is > 100 µM.

Q: And the TGI (U251 CNS)?
A: The TGI was > 100 µM.

Q: What about the TGI (UO-31 renal) of the same compound?
A: Its TGI is > 100 µM.

Q: With `BrCc1ccc2ccc3ccc(CBr)nc3c2n1` as the compound, how does the TGI (CCRF-CEM leukemia) read?
A: The TGI was 3.75 µM.

Q: What about the TGI (HL-60(TB) leukemia) of the same compound?
A: Its TGI is 5.28 µM.

Q: And the TGI (NCI-H460 lung)?
A: The TGI was 20.2 µM.

Q: And the TGI (OVCAR-3 ovarian)?
A: Its TGI is 3.43 µM.

Q: What about the TGI (SF-539 CNS) of the same compound?
A: The TGI was 11 µM.

Q: And the TGI (SK-MEL-2 melanoma)?
A: Its TGI is 15 µM.

Q: What about the TGI (SK-MEL-5 melanoma) of the same compound?
A: The TGI was 8.16 µM.

Q: And the TGI (SN12C renal)?
A: Its TGI is 4.55 µM.

Q: And the TGI (U251 CNS)?
A: Its TGI is 19 µM.

Q: And the TGI (UO-31 renal)?
A: Its TGI is 4.57 µM.

Q: What does the source list for `N.N.N.N.O=S([O-])[O-].[Co+3].[N-]=[N+]=[N-]`?
A: GI50 (CCRF-CEM leukemia): > 100 µM; TGI (CCRF-CEM leukemia): > 100 µM; GI50 (HL-60(TB) leukemia): > 100 µM; TGI (HL-60(TB) leukemia): > 100 µM; GI50 (NCI-H460 lung): > 100 µM; TGI (NCI-H460 lung): > 100 µM; GI50 (OVCAR-3 ovarian): > 100 µM; TGI (OVCAR-3 ovarian): > 100 µM; GI50 (SF-539 CNS): > 100 µM; TGI (SF-539 CNS): > 100 µM; GI50 (SK-MEL-2 melanoma): > 100 µM; TGI (SK-MEL-2 melanoma): > 100 µM; GI50 (SK-MEL-5 melanoma): > 100 µM; TGI (SK-MEL-5 melanoma): > 100 µM; GI50 (SN12C renal): > 100 µM; TGI (SN12C renal): > 100 µM; GI50 (U251 CNS): > 100 µM; TGI (U251 CNS): > 100 µM; GI50 (UO-31 renal): > 100 µM; TGI (UO-31 renal): > 100 µM

Q: Which GI50 (CCRF-CEM leukemia) does the source give for `Cc1cc(C)c(-c2c(O)c(Br)c(-c3c(C)cc(C)c(Br)c3C)c(O)c2Br)c(C)c1Br` here?
A: The GI50 was 4.06 µM.

Q: And the TGI (CCRF-CEM leukemia)?
A: The TGI was 20.2 µM.

Q: And the GI50 (HL-60(TB) leukemia)?
A: Its GI50 is 1.68 µM.

Q: What about the TGI (HL-60(TB) leukemia) of the same compound?
A: Its TGI is 9.67 µM.

Q: And the GI50 (NCI-H460 lung)?
A: Its GI50 is 2.16 µM.

Q: And the TGI (NCI-H460 lung)?
A: The TGI was 6.5 µM.

Q: What about the GI50 (OVCAR-3 ovarian) of the same compound?
A: Its GI50 is 2.33 µM.

Q: And the TGI (OVCAR-3 ovarian)?
A: Its TGI is 10.8 µM.

Q: And the GI50 (SF-539 CNS)?
A: Its GI50 is 2.6 µM.

Q: And the TGI (SF-539 CNS)?
A: The TGI was 8.11 µM.

Q: And the GI50 (SK-MEL-2 melanoma)?
A: Its GI50 is 2 µM.

Q: And the TGI (SK-MEL-2 melanoma)?
A: The TGI was 6.2 µM.

Q: What about the GI50 (SK-MEL-5 melanoma) of the same compound?
A: Its GI50 is 1.77 µM.

Q: And the TGI (SK-MEL-5 melanoma)?
A: The TGI was 4.24 µM.

Q: And the GI50 (SN12C renal)?
A: The GI50 was 2.69 µM.

Q: What about the TGI (SN12C renal) of the same compound?
A: The TGI was 15 µM.

Q: What about the GI50 (U251 CNS) of the same compound?
A: The GI50 was 2.28 µM.

Q: What about the TGI (U251 CNS) of the same compound?
A: The TGI was 8.54 µM.

Q: What about the GI50 (UO-31 renal) of the same compound?
A: Its GI50 is 1.29 µM.

Q: What about the TGI (UO-31 renal) of the same compound?
A: Its TGI is 8.22 µM.

Q: With `O=C1C(=O)N(c2cc(Cl)ccc2Cl)C(=O)C(=O)C1c1nc2ccccc2s1` as the compound, how does the TGI (CCRF-CEM leukemia) read?
A: Its TGI is > 100 µM.

Q: What about the TGI (HL-60(TB) leukemia) of the same compound?
A: Its TGI is > 100 µM.

Q: What about the TGI (NCI-H460 lung) of the same compound?
A: The TGI was > 100 µM.

Q: And the TGI (OVCAR-3 ovarian)?
A: The TGI was > 100 µM.

Q: And the TGI (SF-539 CNS)?
A: Its TGI is > 100 µM.

Q: And the TGI (SK-MEL-2 melanoma)?
A: Its TGI is > 100 µM.

Q: And the TGI (SK-MEL-5 melanoma)?
A: The TGI was > 100 µM.

Q: And the TGI (SN12C renal)?
A: Its TGI is > 100 µM.

Q: What about the TGI (U251 CNS) of the same compound?
A: The TGI was > 100 µM.

Q: And the TGI (UO-31 renal)?
A: Its TGI is 90.8 µM.

Q: Which results are given for `CCOC(=O)NN1C(=O)C(=P(c2ccccc2)(c2ccccc2)c2ccccc2)C(C(=O)OC)=C1C`?
A: TGI (CCRF-CEM leukemia): > 100 µM; TGI (HL-60(TB) leukemia): > 100 µM; TGI (NCI-H460 lung): > 100 µM; TGI (OVCAR-3 ovarian): > 100 µM; TGI (SF-539 CNS): > 100 µM; TGI (SK-MEL-2 melanoma): > 100 µM; TGI (SK-MEL-5 melanoma): > 100 µM; TGI (SN12C renal): > 100 µM; TGI (U251 CNS): > 100 µM; TGI (UO-31 renal): > 100 µM

Q: With `COC(OC)c1cccnc1C` as the compound, how does the TGI (CCRF-CEM leukemia) read?
A: The TGI was > 100 µM.

Q: And the TGI (HL-60(TB) leukemia)?
A: Its TGI is > 100 µM.

Q: What about the TGI (NCI-H460 lung) of the same compound?
A: The TGI was > 100 µM.

Q: What about the TGI (OVCAR-3 ovarian) of the same compound?
A: The TGI was > 100 µM.

Q: And the TGI (SF-539 CNS)?
A: Its TGI is > 100 µM.

Q: And the TGI (SK-MEL-2 melanoma)?
A: Its TGI is > 100 µM.

Q: What about the TGI (SK-MEL-5 melanoma) of the same compound?
A: The TGI was > 100 µM.

Q: What about the TGI (SN12C renal) of the same compound?
A: The TGI was > 100 µM.

Q: And the TGI (U251 CNS)?
A: The TGI was > 100 µM.

Q: What about the TGI (UO-31 renal) of the same compound?
A: Its TGI is > 100 µM.

Q: For `C/C(=N\NC(=S)N1CCCC1)c1ccccn1`, which GI50 (CCRF-CEM leukemia) is on record?
A: Its GI50 is < 0.01 µM.

Q: What about the TGI (CCRF-CEM leukemia) of the same compound?
A: Its TGI is 23.1 µM.

Q: And the GI50 (HL-60(TB) leukemia)?
A: Its GI50 is 0.01 µM.

Q: What about the TGI (HL-60(TB) leukemia) of the same compound?
A: Its TGI is 0.229 µM.

Q: And the GI50 (NCI-H460 lung)?
A: Its GI50 is < 0.01 µM.

Q: And the TGI (NCI-H460 lung)?
A: Its TGI is 7.06 µM.

Q: What about the GI50 (OVCAR-3 ovarian) of the same compound?
A: Its GI50 is < 0.01 µM.

Q: What about the TGI (OVCAR-3 ovarian) of the same compound?
A: The TGI was 12.1 µM.

Q: What about the GI50 (SF-539 CNS) of the same compound?
A: Its GI50 is < 0.0265 µM.

Q: And the TGI (SF-539 CNS)?
A: The TGI was 3.08 µM.

Q: And the GI50 (SK-MEL-2 melanoma)?
A: Its GI50 is 0.242 µM.

Q: And the TGI (SK-MEL-2 melanoma)?
A: Its TGI is 14.4 µM.

Q: What about the GI50 (SK-MEL-5 melanoma) of the same compound?
A: The GI50 was 0.0348 µM.

Q: And the TGI (SK-MEL-5 melanoma)?
A: The TGI was 0.42 µM.

Q: And the GI50 (SN12C renal)?
A: Its GI50 is 0.0132 µM.

Q: And the TGI (SN12C renal)?
A: The TGI was 11.8 µM.

Q: And the GI50 (U251 CNS)?
A: The GI50 was < 0.01 µM.

Q: What about the TGI (U251 CNS) of the same compound?
A: Its TGI is 11.9 µM.

Q: And the GI50 (UO-31 renal)?
A: The GI50 was < 0.011 µM.

Q: And the TGI (UO-31 renal)?
A: The TGI was 3.18 µM.
